Test results taken from the NIST ThermoML archive (doi:10.1021/je060271a).

Conditions: 343.15 K, Liquid, Vibrating tube method

CCCCCCCC(=O)OCC(COC(=O)CCCCCCC)(COC(=O)CCCCCCC)COC(=O)CCCCCCC [pentaerythritol tetraoctanoate]
Conditions | mass density [kg/m3]
22002 kPa | 941.5
22028 kPa | 941.4
22054 kPa | 941.3
22085 kPa | 941.4
22111 kPa | 941.4
22142 kPa | 941.5
22168 kPa | 941.4
22195 kPa | 941.6
22221 kPa | 941.4
22248 kPa | 941.5
22280 kPa | 941.6
22307 kPa | 941.6
22338 kPa | 941.5
22365 kPa | 941.8
22392 kPa | 941.7
22424 kPa | 941.7
22451 kPa | 941.7
22478 kPa | 941.5
22510 kPa | 941.7
22537 kPa | 941.7
22564 kPa | 941.8
22599 kPa | 941.9
22626 kPa | 941.8
22654 kPa | 941.9
22682 kPa | 941.9
22709 kPa | 941.7
22742 kPa | 941.8
22770 kPa | 941.8
22798 kPa | 941.8
22831 kPa | 942
22858 kPa | 941.8
22892 kPa | 941.9
22920 kPa | 941.9
22949 kPa | 942
23008 kPa | 942
23042 kPa | 941.9
23070 kPa | 942.1
23098 kPa | 942.1
23132 kPa | 942.1
23161 kPa | 942.1
23190 kPa | 942.1
23224 kPa | 942.1
23253 kPa | 942.1
23281 kPa | 942.2
23316 kPa | 942.2
23344 kPa | 942.1
23374 kPa | 942.3
23409 kPa | 942.2
23438 kPa | 942.4
23468 kPa | 942.1
23497 kPa | 942.3
23532 kPa | 942.2
23562 kPa | 942.4
23597 kPa | 942.4
23627 kPa | 942.3
23656 kPa | 942.5
23686 kPa | 942.4
23722 kPa | 942.5
23753 kPa | 942.5
23777 kPa | 942.5
23819 kPa | 942.5
23849 kPa | 942.6
23886 kPa | 942.6
23916 kPa | 942.5
23946 kPa | 942.5
23984 kPa | 942.5
24014 kPa | 942.6
24045 kPa | 942.8
24076 kPa | 942.6
24113 kPa | 942.7
24144 kPa | 942.6
24182 kPa | 942.7
24245 kPa | 942.8
24283 kPa | 942.8
24314 kPa | 942.8
24345 kPa | 942.8
24377 kPa | 942.9
24415 kPa | 942.8
24447 kPa | 942.9
24480 kPa | 942.9
24518 kPa | 943
24550 kPa | 942.9
24589 kPa | 943
24622 kPa | 943.1
24655 kPa | 943.1
24688 kPa | 943.1
24721 kPa | 943
24761 kPa | 943.1
24794 kPa | 943.1
24828 kPa | 943.1
24867 kPa | 943.1
24894 kPa | 943.3
24934 kPa | 943.3
24961 kPa | 943.1
24994 kPa | 943.2
25028 kPa | 943.2
25069 kPa | 943.3
25097 kPa | 943.2
25138 kPa | 943.4
25185 kPa | 943.5
25226 kPa | 943.3
25260 kPa | 943.3
25294 kPa | 943.5
25335 kPa | 943.5
25370 kPa | 943.5
25404 kPa | 943.5
25445 kPa | 943.6
25480 kPa | 943.5
25523 kPa | 943.6
25553 kPa | 943.7
25596 kPa | 943.5
25632 kPa | 943.8
25667 kPa | 943.6
25703 kPa | 943.7
25746 kPa | 943.8
25781 kPa | 943.7
25824 kPa | 943.7
25860 kPa | 943.7
25896 kPa | 943.8
25933 kPa | 944
25977 kPa | 943.9
26014 kPa | 943.9
26054 kPa | 943.9
26091 kPa | 943.9
26135 kPa | 943.9
26172 kPa | 944
26210 kPa | 944.2
26247 kPa | 944.1
26292 kPa | 944.1
26329 kPa | 944.1
26367 kPa | 944.2
26412 kPa | 944.1
26449 kPa | 944.1
26495 kPa | 944.1
26534 kPa | 944.1
26573 kPa | 944
26612 kPa | 944.2
26696 kPa | 944.4
26735 kPa | 944.4
26781 kPa | 944.3
26820 kPa | 944.4
26859 kPa | 944.4
26906 kPa | 944.4
26945 kPa | 944.4
26985 kPa | 944.4
27032 kPa | 944.6
27072 kPa | 944.4
27113 kPa | 944.7
27160 kPa | 944.5
27200 kPa | 944.7
27241 kPa | 944.7
27290 kPa | 944.7
27331 kPa | 944.6
27371 kPa | 944.7
27412 kPa | 944.8
27462 kPa | 944.7
27503 kPa | 944.8
27544 kPa | 944.8
27594 kPa | 944.9
27637 kPa | 944.8
27680 kPa | 944.9
27721 kPa | 944.9
27772 kPa | 945
27815 kPa | 945.1
27857 kPa | 945
27909 kPa | 945
27951 kPa | 945
28003 kPa | 945
28046 kPa | 945.1
28089 kPa | 945.1
28141 kPa | 945.3
28185 kPa | 945.2
28231 kPa | 945.3
28277 kPa | 945.4
28332 kPa | 945.4
28378 kPa | 945.4
28426 kPa | 945.4
28478 kPa | 945.5
28513 kPa | 945.4
28545 kPa | 945.5
28583 kPa | 945.4
28615 kPa | 945.4
28647 kPa | 945.5
28680 kPa | 945.5
28720 kPa | 945.7
28753 kPa | 945.6
28786 kPa | 945.6
28818 kPa | 945.8
28858 kPa | 945.7
28890 kPa | 945.7
28923 kPa | 945.7
28963 kPa | 945.7
28996 kPa | 945.8
29036 kPa | 945.8
29070 kPa | 945.9
29104 kPa | 945.8
29138 kPa | 945.9
29179 kPa | 945.9
29207 kPa | 945.8
29247 kPa | 946
29281 kPa | 945.9
29321 kPa | 945.9
29355 kPa | 946
29389 kPa | 946
29424 kPa | 946
29465 kPa | 946
29500 kPa | 946
29534 kPa | 946.1
29570 kPa | 946.1
29612 kPa | 946.1
29648 kPa | 946.2
29685 kPa | 946.2
29720 kPa | 946.2
29754 kPa | 946.3
29797 kPa | 946.2
29832 kPa | 946.2
29874 kPa | 946.2
29910 kPa | 946.3
29945 kPa | 946.3
29987 kPa | 946.4
30024 kPa | 946.4
30060 kPa | 946.5
30096 kPa | 946.4
30139 kPa | 946.4
30175 kPa | 946.5
30212 kPa | 946.4
30255 kPa | 946.6
30291 kPa | 946.5
30327 kPa | 946.7
30371 kPa | 946.5
30525 kPa | 946.7
30562 kPa | 946.8
30607 kPa | 946.7
30646 kPa | 946.7
30682 kPa | 946.8
30727 kPa | 946.8
30764 kPa | 946.9
30802 kPa | 946.8
30847 kPa | 946.8
30885 kPa | 946.9
30923 kPa | 947
31006 kPa | 946.9
31045 kPa | 947
31091 kPa | 947
31130 kPa | 947
31169 kPa | 947.2
31208 kPa | 947.1
31255 kPa | 947.1
31294 kPa | 947.2
31341 kPa | 947.1
31380 kPa | 947.2
31411 kPa | 947.1
31459 kPa | 947.2
31506 kPa | 947.2
31538 kPa | 947.4
31586 kPa | 947.3
31633 kPa | 947.5
31674 kPa | 947.4
31717 kPa | 947.3
31758 kPa | 947.5
31807 kPa | 947.4
31848 kPa | 947.5
31898 kPa | 947.5
31942 kPa | 947.5
31985 kPa | 947.6
32036 kPa | 947.6
32074 kPa | 947.7
32104 kPa | 947.6
32141 kPa | 947.6
32172 kPa | 947.8
32204 kPa | 947.8
32242 kPa | 947.7
32273 kPa | 947.7
32305 kPa | 947.9
32342 kPa | 947.7
32374 kPa | 947.9
32405 kPa | 947.8
32443 kPa | 947.8
32475 kPa | 947.8
32507 kPa | 947.8
32545 kPa | 947.9
32577 kPa | 947.9
32610 kPa | 948
32644 kPa | 948
32671 kPa | 948
32710 kPa | 948
32736 kPa | 948.1
32762 kPa | 948.1
32840 kPa | 948
32885 kPa | 948.1
32925 kPa | 948
32958 kPa | 948.2
32991 kPa | 948.3
33030 kPa | 948.3
33064 kPa | 948.3
33099 kPa | 948.3
